# Results as given in patent US20260184707A1, “PHARMACEUTICAL COMPOUNDS FOR THE TREATMENT OF COMPLEMENT MEDIATED DISORDERS” (ALEXION PHARMACEUTICALS, INC., priority 2022, published 2026).
# Target: T1, Human complement C1s enzyme (Homo sapiens, UniProt P09871)
# T1 construct: purified from human serum, Complement Technology, Inc; purchased Complement Technology, Inc; host or cells: human serum (plasma-derived native protein)
# T1 sequence (P09871 438-688 limits assumed): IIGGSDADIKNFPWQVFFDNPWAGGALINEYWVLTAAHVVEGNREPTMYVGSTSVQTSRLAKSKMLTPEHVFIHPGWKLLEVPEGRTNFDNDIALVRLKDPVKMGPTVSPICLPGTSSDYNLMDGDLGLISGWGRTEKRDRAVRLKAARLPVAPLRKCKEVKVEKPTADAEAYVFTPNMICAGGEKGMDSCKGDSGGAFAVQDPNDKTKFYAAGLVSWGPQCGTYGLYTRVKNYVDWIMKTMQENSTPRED
# T1 sequence (P09871 16-437 partner limits assumed): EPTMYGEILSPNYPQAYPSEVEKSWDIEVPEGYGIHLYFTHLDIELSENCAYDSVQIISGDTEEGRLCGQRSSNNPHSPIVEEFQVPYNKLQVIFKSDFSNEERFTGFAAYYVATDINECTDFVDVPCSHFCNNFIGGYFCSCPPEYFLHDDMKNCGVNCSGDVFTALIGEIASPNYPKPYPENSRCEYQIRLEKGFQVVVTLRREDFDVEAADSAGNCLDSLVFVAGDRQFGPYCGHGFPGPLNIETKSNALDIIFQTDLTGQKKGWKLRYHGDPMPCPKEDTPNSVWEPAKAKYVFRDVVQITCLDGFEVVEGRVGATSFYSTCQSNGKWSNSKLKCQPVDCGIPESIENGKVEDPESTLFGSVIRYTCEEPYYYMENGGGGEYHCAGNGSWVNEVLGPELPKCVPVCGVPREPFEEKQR
# Assay: Human C1s enzyme assay
# Assay type: biochemical
# Settings: human complement C1s enzyme 1.16 nM, substrate Z-L-Lys-SBzl, A405; read-out: IC50 (Stars)
# Experimental: The […] values of the compounds of Table 1 were determined with the human C1s enzyme assay described below. Other standard complement assays are also available.
# Human complement C1s enzyme (purified from human serum, Complement Technology, Inc.) at 1.16 nM final concentration was incubated with test compound at various concentrations for 5 min at room temperature in 50 mM Tris, 1 M NaCl, pH 7.5. A synthetic substrate Z-L-Lys-SBzl and DTNB (Ellman's reagent) were added to final concentrations of 100 μM each. Absorbance at 405 nm (A405) was recorded at 30 second intervals for […] using a microplate spectrophotometer. IC values were calculated by nonlinear regression of complement C1s reaction rates as a function of test compound concentration.
# […]; ND indicates a compound for which the IC50 value is not determined.
row,Compound,IC50 [nM]
1,"O=C(Cn1c(N2CCOCC2)ncc(NCCCc2ccccc2)c1=O)NCc1cc2cnccc2[nH]1 [Compound 412, N-((1H-pyrrolo[3,2-c]pyridine-2-yl)methyl)-2-(2-morpholino-6-oxo-5-((3-phenylpropyl)amino)pyrimidin-1(6H)-yl)acetamide]",< 100
2,"C[C@H](Nc1cnc(-c2ccccc2F)n(CC(=O)NCc2cc3cnccc3[nH]2)c1=O)c1ccc2c(c1)oc1ccccc12 [Compound 309, (S)-N-((1H-pyrrolo[3,2-c]pyridin-2-yl)methyl)-2-(5-((1-(dibenzo[b,d]furan-3-yl)ethyl)-amino)-2-(2-fluorophenyl)-6-oxopyrimidin-1(6H)-yl)acet-amide]",< 100
3,"O=C(Cn1c(-c2ccccc2)ncc(NC(=O)c2ccc(-c3ccc(F)cc3F)cc2)c1=O)NCc1cc2cnccc2[nH]1 [Compound 92, N-(1-(2-(((1H-pyrrolo[3,2-c]pyridin-2-yl)methyl)amino)-2-oxoethyl)-6-oxo-2-phenyl-1,6-dihydropyrimidin-5-yl)-2′,4′-difluoro-[1,1′-biphenyl]-4-carboxamide]",< 100
4,"C[C@@H](Nc1cnc(N2CCCC2)n(CC(=O)NCc2cc3cnccc3[nH]2)c1=O)c1ccc(-c2ccccc2F)cc1 [Compound 422, (R)-N-((1H-pyrrolo[3,2-c]pyridin-2-yl)methyl)-2-(5-((1-(2′-fluoro-[1,1′-biphenyl]-4-yl)ethyl)amino)-6-oxo-2-(pyr-rolidin-1-yl)pyrimidin-1(6H)-yl)acetamide]",< 100
5,"O=C(Cn1c(-c2ccccc2)ncc(NCCNC(=O)c2ccc(Oc3ccccc3)cc2)c1=O)NCc1cc2cnccc2[nH]1 [Compound 33, N-(2-((1-(2-(((1H-pyrrolo[3,2-c]pyridin-2-yl)methyl)amino)-2-oxoethyl)-6-oxo-2-phenyl-1,6-dihydropyrimidin-5-yl)amino)ethyl)-4-phenoxybenzamide]",< 100
6,"O=C(Cn1c(N2CC(F)C2)ncc(NCc2ccc3oc4ccccc4c3c2)c1=O)NCc1cc2cnccc2[nH]1 [Compound 270, 2-[5-(dibenzofuran-2-ylmethylamino)-2-(3-fluoroazetidin-1-yl)-6-oxo-pyrimidin-1-yl]-N-(1H-pyrrolo[3,2-c]pyridine-2-ylmethyl)acetamide]",< 100
7,"C[C@@H](Nc1cnc(N2CCS(=O)(=O)CC2)n(CC(=O)NCc2cc3cnccc3[nH]2)c1=O)c1ccc2oc3ccccc3c2c1 [Compound 385, (R)-N-((1H-pyrrolo[3,2-c]pyridin-2-yl)methyl)-2-(5-((1-(dibenzo[b,d]furan-2-yl)ethyl)-amino)-2-(1,1-dioxidothio-morpholino)-6-oxopyrimidin-1(6H)-yl)acetamide]",> 1000
8,"O=C(Cn1c(-c2ccccc2)ncc(Nc2cccc(-c3ccc(F)cc3)c2)c1=O)NCc1cc2cnccc2[nH]1 [Compound 236, N-((1H-pyrrolo[3,2-c]pyridin-2-yl)methyl)-2-(5-((4′-fluoro-[1,1′-biphenyl]-3-yl)amino)-6-oxo-2-phenylpyrimidin-1(6H)-yl)acetamide]",< 100

# Now from value to molecule:
row,IC50 [nM],Compound
1,> 1000,"O=C(Cn1c(-c2ccccc2)ncc(NS(=O)(=O)c2ccccc2)c1=O)NCc1cc2cnccc2[nH]1 [Compound 395, N-((1H-pyrrolo[3,2-c]pyridin-2-yl)methyl)-2-(6-oxo-2-phen-yl-5-(phenylsulfonamido)-pyrimidin-1(6H)-yl)acetamide]"
2,> 1000,"O=C(Cc1cc(NCCCc2ccccc2)ncc1-c1ccccc1)NCc1cc2cnccc2[nH]1 [Compound 80, N-((1H-pyrrolo[3,2-c]pyridine-2-yl)methyl)-2-(5-phenyl-2-((3-phenylpropyl)amino)pyridine-4-yl)acetamide]"
3,< 100,"CS(=O)(=O)c1ccc(CCCNc2cnc(-c3ccccc3)n(CC(=O)NCc3cc4cnccc4[nH]3)c2=O)cc1 [Compound 42, N-((1H-pyrrolo[3,2-c]pyridin-2-yl)methyl)-2-(5-((3-(4-(methylsulfonyl)phenyl)propyl)amino)-6-oxo-2-phenylpyrimidin-1(6H)-yl)acetamide]"
